Experimental findings from US11970493B2, “Autotaxin inhibitor compounds” (ILDONG PHARMACEUTICAL CO., LTD., priority 2020, dated 2024) are described below.

A value given as a limit tells only on which side of the number the result lay.

For one data set, the target named is hATX/ENPP2 (Homo sapiens, UniProt Q13822). The data set can be described thus: hATX/ENPP2 biochemical assay using 16:0-LPC as substrate (Amplex Red/choline oxidase/HRP fluorescence). To be noted: hENPP2 2.5 nM, LPC (16:0) substrate. An outline of the steps:
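Enzyme preincubated with compounds 15 min at room temperature in 50 mM Tris-HCl pH 8.0, 140 mM NaCl, 5 mM CaCl2, 0.01% Triton X-100. Reaction started with 80 μM LPC (16:0) stock plus Amplex Red/choline oxidase/HRP mix; fluorescence (ex 530/em 590 nm) read kinetically. IC50 from slope between 60 and 70 min.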

Data set [1] deals with LPA 18:2 level in mouse plasma. The data set can be described thus: In vitro LPA assay, reduction of LPA 18:2 level in mouse plasma (LC-MS/MS). Type of data set: biochemical. To be noted: 2 hr at 37° C., LPA 18:2 reduction. Here is the method: (§1) Autotaxin (ATX) plays an important role in lysophosphatidic acid (LPA) signaling. An in vitro LPA assay was conducted to determine IC50 values of the test compounds on reduction of LPA 18:2 level in rat or mouse plasma. This example describes the assay data (IC50 value ranges) of exemplary compounds from LPA assays using mouse and rat plasma. Compound GPLG-1690 was assayed as a reference compound.
(§2) The 10 mM DMSO stock solutions of test compounds and 4-fold serial dilutions of the test compounds were prepared at various concentrations. The diluted solutions of the compounds were diluted with 1×PBS (pH 7.5) buffer. 38 μL of rat or mouse plasma samples were mixed with 2 μL of the diluted solutions of the compounds or 2% DMSO solutions in 96-well plate (final 0.1% DMSO). After incubating for 2 hr at 37° C., 120 μL MeOH containing IS (250 ng/mL of LPA 17:0) was added to each well. Mixture was vortexed for 1 min, and then centrifuged for 30 min (4000 rpm, 4° C.). 100 μL supernatant was transferred to a 96-well plate containing 100 μL pure water and the plate was shaken for 10 min. 5 μL supernatant was injected into LC-MS/MS system. No calibration curve will be prepared for LPA 18:2 and all quantifications were performed based on peak area ratios (LPA 18:2/LPA 17:0). For each concentration of compound LPA data were expressed as percentage of reduction (% reduction) using the formula. 100−[((LPA ratio-LPA ratio in control sample after 0 hr incubation)/(LPA ratio in control sample after 2 hr incubation—LPA ratio in control sample after 0 hr incubation))*100]. Data

Data set [2] relates to LPA 18:2 level in rat plasma. The data set can be described thus: In vitro LPA assay, reduction of LPA 18:2 level in rat plasma (LC-MS/MS). The note with it: 2 hr at 37° C., LPA 18:2 reduction. Type of data set: biochemical. Here is the method:
as §1, §2

Data set [3] can be described thus: Mouse PK study (IV and PO). It counts as in vivo. To be noted: male, C57BL/6, mouse, plasma, male C57BL/6 mice; for AUC(0-inf): IV 2 mg/kg and PO 10 mg/kg study; for bioavailability / Cmax: po, 10 mg/kg; for bioavailability: IV 2 mg/kg and PO 10 mg/kg, read-out: F % (bioavailability); for Cmax: PO group 10 mg/kg. As to the method:
This example describes the pharmacokinetic (PK) data obtained for various compounds of the present disclosure, from studies using mice. The following PK parameters were calculated: • Bioavailability (F %) were calculated using the linear/log trapezoidal rule • Peak plasma concentrations (Cmax (ng/mL)) were taken directly from the plasma concentration vs. time profiles for the PO group • Area under the curve e.g., the area under the concentration curve from time 0 to infinity (AUC0-inf(ng*h/mL)). Experimental Procedures
After intravenous (IV) and oral (PO) administration at 2 mg/kg and 10 mg/kg to male C57BL/6 mice, respectively, the blood samples were collected at the designed sampling time points. All blood samples were transferred into pre-chilled commercial polyethylene microcentrifuge tubes containing K2-EDTA as an anticoagulant. Samples were processed for plasma by centrifugation. Plasma samples was transferred into polypropylene tubes pre-chilled on dry ice and then quickly frozen over dry ice and kept at −70±10° C. until LC-MS/MS analysis. Mice plasma samples were analyzed using qualified bioanalytical methods based on protein precipitation followed by LC-MS/MS analysis. Individual plasma concentration data of each compound was subjected to noncompartmental pharmacokinetic analysis using Phoenix WinNonlin™. Nominal doses were used for pharmacokinetic parameters calculation.

Compound `CCc1nc2ccc(-c3cnc(N4CCN(C(=O)C5(CO)CC5)CC4)nc3)cn2c1N(C)c1nc(-c2ccc(F)cc2)c(C#N)s1` [Compound 10, 2-((2-ethyl-6-(2-(4-(1-(hydroxymethyl)cyclopropane-1-carbonyl)piperazin-1-yl)pyrimidin-5-yl)imidazo[1,2-a]pyridin-3-yl)(methyl)amino)-4-(4-fluorophenyl)thiazole-5-carbonitrile] showed an IC50 against hATX/ENPP2 not above 20 nM. In data set [1], the IC50 was in the range of 200 to 800 nM. The compound also showed a 50% inhibitory concentration (IC50) in data set [2] not above 200 nM. Further, in data set [3], the AUC(0-inf) was found to be 26700 ng·h/mL, the bioavailability is 28% and the Cmax came out at 4950 ng/mL.

Take `CCc1nc2ccc(-c3cnc(N4CC(NC5(CO)CC5)C4)nc3)cn2c1N(C)c1nc(-c2ccc(F)cc2)c(C#N)s1` [Compound 30, 2-((2-ethyl-6-(2-(3-((1-(hydroxymethyl)cyclopropyl)amino)azetidin-1-yl)pyrimidin-5-yl)imidazo[1,2-a]pyridin-3-yl)(methyl)amino)-4-(4-fluorophenyl)thiazole-5-carbonitrile]: the IC50 on hATX/ENPP2 fell in the range of 20 to 200 nM. The compound also returned a concentration for half-maximal inhibition (IC50) in data set [1] of 200 to 800 nM. Further, the half-maximal inhibitory concentration (IC50) in data set [2] lay in the range of 200 to 800 nM. Besides, in data set [3], the AUC(0-inf) is 21700 ng·h/mL, the bioavailability worked out at 42% and the Cmax is 4310 ng/mL.

Regarding `CCc1nc2ccc(-c3cnc(N4CCN(C(=O)N5CCCC5)CC4)nc3)cn2c1N(C)c1nc(-c2ccc(F)cc2)c(C#N)s1` [Compound 42, 2-((2-ethyl-6-(2-(4-(pyrrolidine-1-carbonyl)piperazin-1-yl)pyrimidin-5-yl)imidazo[1,2-a]pyridin-3-yl)(methyl)amino)-4-(4-fluorophenyl)thiazole-5-carbonitrile], the results for the IC50 (on hATX/ENPP2; in data set [1]; in data set [2]) were not above 20 nM, 200 to 800 nM and 200 to 800 nM, respectively.

In the case of `CCc1nc2ccc(-c3cnc(N4CCN(C(=O)N5CC[C@@H](O)C5)CC4)nc3)cn2c1N(C)c1nc(-c2ccc(F)cc2)c(C#N)s1` [Compound 43, (R)-2-((2-ethyl-6-(2-(4-(3-hydroxypyrrolidine-1-carbonyl)piperazin-1-yl)pyrimidin-5-yl)imidazo[1,2-a]pyridin-3-yl)(methyl)amino)-4-(4-fluorophenyl)thiazole-5-carbonitrile], the IC50 at hATX/ENPP2 is not above 20 nM. The IC50 in data set [1] is not above 200 nM. Besides, the IC50 in data set [2] is not above 200 nM. Further, in data set [3], the AUC(0-inf) came out at 31000 ng·h/mL, the bioavailability was 39.5% and the concentration peaked (Cmax) at 5170 ng/mL.

For the compound `CCc1nc2ccc(-c3cnc(N4CCN(C(=O)N5CC[C@H](O)C5)CC4)nc3)cn2c1N(C)c1nc(-c2ccc(F)cc2)c(C#N)s1` [Compound 44, (S)-2-((2-ethyl-6-(2-(4-(3-hydroxypyrrolidine-1-carbonyl)piperazin-1-yl)pyrimidin-5-yl)imidazo[1,2-a]pyridin-3-yl)(methyl)amino)-4-(4-fluorophenvl)thiazole-5-carbonitrile], at hATX/ENPP2, the IC50 is not above 20 nM. Moreover, the IC50 in data set [1] is 200 to 800 nM. In data set [2], this compound showed an IC50 of 200 to 800 nM. Moreover, in data set [3], the AUC(0-inf) is 25000 ng·h/mL, the bioavailability was determined as 33.4% and the Cmax turned out to be 4730 ng/mL.

For the compound `CCc1nc2ccc(-c3ccc(N4CCN(C(=O)N5CCCC5)CC4)nc3)cn2c1N(C)c1nc(-c2ccc(F)cc2)c(C#N)s1` [Compound 85, 2-((2-ethyl-6-(6-(4-(pyrrolidine-1-carbonyl)piperazin-1-yl)pyridin-3-yl)imidazo[1,2-a]pyridin-3-yl)(methyl)amino)-4-(4-fluorophenyl) thiazole-5-carbonitrile], the concentration for half-maximal inhibition (IC50) is 20 to 200 nM against hATX/ENPP2, 200 to 800 nM in data set [1] and not above 200 nM in data set [2].

Consider `CCc1nc2ccc(-c3ccc(C(=O)N4CCCC4)nc3)cn2c1N(C)c1nc(-c2ccc(F)cc2)c(C#N)s1` [Compound 87, 2-((2-ethyl-6-(6-(pyrrolidine-1-carbonyl)pyridin-3-yl)imidazo[1,2-a]pyridin-3-yl)(methyl)amino)-4-(4-fluorophenyl)thiazole-5-carbonitrile], for which the IC50 against hATX/ENPP2 was in the range of 20 to 200 nM; in data set [1] it was 200 to 800 nM; in data set [2] it was 200 to 800 nM.

As for `CCc1nc2ccc(-c3ccc(N4CCN(C(=O)C5(CO)CC5)CC4)nc3)cn2c1N(C)c1nc(-c2ccc(F)cc2)c(C#N)s1` [Compound 93, 2-((2-ethyl-6-(6-(4-(1-(hydroxylmethyl)cyclopropane-1-carbonyl)piperazin-1-yl)pyridin-3-yl)imidazo[1,2-a]pyridin-3-yl) (methyl)amino)-4-(4-fluorophenyl)thiazole-5-carbonitrile], the IC50 at hATX/ENPP2 is not above 20 nM; in data set [1] it was 200 to 800 nM; in data set [2], not above 200 nM.

Take `CCc1nc2ccc(-c3ccc(N4CC(NC5(CO)CC5)C4)nc3)cn2c1N(C)c1nc(-c2ccc(F)cc2)c(C#N)s1` [Compound 109, 2-((2-ethyl-6-(6-(3-((1-(hydroxymethyl)cyclopropyl)amino)azetidin-1-yl)pyridin-3-yl)imidazo[1,2-a]pyridin-3-yl)(methyl)amino)-4-(4-fluorophenyl)thiazole-5-carbonitrile]: the IC50 is 20 to 200 nM against hATX/ENPP2, 200 to 800 nM in data set [1] and not above 200 nM in data set [2].

As to `CCc1nc2ccc(-c3ccc(N4CCC(C(=O)N5CCNCC5)CC4)nc3)cn2c1N(C)c1nc(-c2ccc(F)cc2)c(C#N)s1` [Compound 118, 2-((2-ethyl-6-(6-(4-(piperazine-1-carbonyl)piperidin-1-yl)pyridin-3-yl)imidazo[1,2-a]pyridin-3-yl) (methyl)amino)-4-(4-fluorophenyl)thiazole-5-carbonitrile], the concentration for half-maximal inhibition (IC50) is not above 20 nM on hATX/ENPP2, 200 to 800 nM in data set [1] and not above 200 nM in data set [2].

Take `CCc1nc2ccc(-c3ccc(N4CCC(C(=O)N5CCCCC5)CC4)nc3)cn2c1N(C)c1nc(-c2ccc(F)cc2)c(C#N)s1` [Compound 121, 2-((2-ethyl-6-(6-(4-(piperidine-1-carbonyl)piperidin-1-yl)pyridin-3-yl)imidazo[1,2-a]pyridin-3-yl)(methyl)amino)-4-(4-fluorophenyl)thiazole-5-carbonitrile]: the IC50 against hATX/ENPP2 is 20 to 200 nM; in data set [1], 200 to 800 nM; in data set [2] it was not above 200 nM.

`CCc1nc2ccc(-c3cnc(N4CC(C(=O)N5CCC5)C4)nc3)cn2c1N(C)c1nc(-c2ccc(F)cc2)c(C#N)s1` [Compound 125, 2-((6-(2-(3-(azetidine-1-carbonyl)azetidin-1-yl)pyrimidin-5-yl)-2-ethylimidazo[1,2-a]pyridin-3-yl)(methyl)amino)-4-(4-fluorophenyl)thiazole-5-carbonitrile]: the IC50 at hATX/ENPP2 is 20 to 200 nM; in data set [1], 200 to 800 nM; in data set [2] it was not above 200 nM.

As to `CCc1nc2ccc(-c3cnc(N4CCC(C(=O)N5CCOCC5)CC4)nc3)cn2c1N(C)c1nc(-c2ccc(F)cc2)c(C#N)s1` [Compound 127, 2-((2-ethyl-6-(2-(4-(morpholine-4-carbonyl)piperidin-1-yl)pyrimidin-5-yl)imidazo [1,2-a]pyridin-3-yl)(methyl)amino)-4-(4-fluorophenyl)thiazole-5-carbonitrile], the results for the half-maximal inhibitory concentration (IC50) (against hATX/ENPP2; in data set [1]; in data set [2]) were not above 20 nM, 200 to 800 nM and not above 200 nM, respectively.
